Source: patent publication US20220409637A1, “COVID-19 THERAPEUTICS AND METHODS OF TREATMENT” (priority 2020, published 2022)

Assays:
[1] = system: T. congolense-infected mice; settings: cited from earlier work
[2] = in vivo; cited from earlier work
LD50 = type: in vivo; settings: 70 kg human
ACE2 [3] = test: Externalization of ACE2 on cell surface, anti-human ACE2 antibody / horseradish peroxidase staining (FIG. 2); type: cell-based; settings: human brain endothelial cells, 10 mM Diminazene for 3 hours, n=4
Method: FIG. 2 is a graph of externalization of ACE2 on cell surface after treatment with diminazene. The inventors cultured human brain endothelial cells to confluency and exposed these cells to 10 mM Diminazene for 3 hours after which they were fixed in 3.7% phosphate buffered formaldehyde for 30 mins. Cells were then incubated in 1:250 rabbit antibhuman ACE2 (overnite) followed by washes and then goat anti rabbit horseradish peroxidase (1 h).

[4] = system: viral infection of ACE2 expressing cell monolayers (WT spike); test: Infectivity of ACE2 expressing cell monolayers by virus (WT spike) (FIGS. 3-6); type: cell-based; settings: for infectivity of cells: concentrations between 1 mM and 0.01 mM
Method: This is equivalent to a high dose of 515 mg/kg (1 mM) to the lowest dose of 5.15 mg/kg (0.01 mM). Assuming 100% biological distribution in a 70 kg human, 10^-4M is a dose of 3.5 g and 10^-5M is 350 mg.
This is equivalent to a high dose of 515 mg/kg (1 mM) to the lowest dose of 5.15 mg/kg.

ACE2 [5] = type: cell-based

| Structure (SMILES) | serum pro-inflammatory cytokine levels [1] | LD50 [2] | LD50 as total dose (LD50) | average ACE2 signal on cell surface of treated monolayers (ACE2 [3]) | infectivity of cells ([4]; infectious ratio 1:100 viruses per cell, FIG. 3) | infectivity of cells ([4]; infectious ratio 5:100 viruses per cell, FIG. 4) | infectivity of cells ([4]; infectious ratio 10:100 viruses per cell, FIG. 5) | externalization of ACE2 (ACE2 [5]) | ACE2-mediated binding and signal of VSV virus-expressing COVID-spike protein in target cells (ACE2 [5]; target cells, FIG. 1) | infectivity of cells expressing WT spike (amount of green signal produced by viral infection) ([4]; ACE2 expressing cell monolayers, infectious ratio 5:100 viruses per cell, 1 mM to 0.01 mM, FIG. 6) |
| --- | --- | --- | --- | --- | --- | --- | --- | --- | --- | --- |
| N=C(N)c1ccc(/N=N/Nc2ccc(C(=N)N)cc2)cc1 [Diminazene, 4,4′-(1-Triazene-1,3-diyl) bis(benzenecarboximidamide)] | reduces serum pro-inflammatory cytokine levels | ~350 mg/kg | ~24 grams | increased average signal in treated monolayers consistent with externalization of ACE2 on the cell surface | dose-dependent reduction in the infectivity of cells | dose-dependent reduction in the infectivity of cells | dose-dependent reduction in the infectivity of cells |  |  |  |
| CC(=O)NCC(=O)O.CC(=O)NCC(=O)O.N=C(N)c1ccc(N=NNc2ccc(C(=N)N)cc2)cc1 [diminazene aceturate] |  |  |  |  |  |  |  | concentration-dependently causes externalization of ACE2 | increases ACE2-mediated binding and signal | dose-dependent reduction in the infectivity of cells expressing WT spike |
